Key:
[1] = test system: TβRII; assay: TβRII protein in human hair germinal matrix cells treated with HAPLN1 and/or HA, then TGF-β2 (Western blotting); type: cell-based; conditions: HAPLN1 25 ng/mL or HA 25 μg/mL alone; TGF-β2 2 ng/mL after 1 hour; 23 hours
Procedure: Human hair germinal matrix cells were dispensed into a poly-D-lysine 6-well plate at a concentration of 5.0×10^4 per well and cultured for 24 hours. After 24 hours, the medium was removed and replaced with a new serum-free medium. HAPLN1 was treated with 25 ng/mL, HA was treated with 25 μg/mL, and after 1 hour, TGF-β2 (2 ng/mL) was treated. After 23 hours, cells were collected, a lysis buffer (25 mM Tris-HCl, 1 mM EDTA, 0.1% Triton-X100, phosphatase inhibitor, and protease inhibitor) was added, and all the cells were broken through sonication. TβRI and TβRII in the sample were measured using Western blotting. The optical density of TβRII was compared to that of GAPDH using a densitometer.

[2] = test system: TβRII; assay: TβRII protein after exogenous HAPLN1 and/or HA in endogenous HAPLN1-deficient human hair germinal matrix cells; type: cell-based; conditions: after HAPLN1 siRNA; HAPLN1 25 ng/mL and/or HA 25 μg/mL; TGF-β2 2 ng/mL, 23 hours
Procedure: (§1) The human hair germinal matrix cells were dispensed into a poly-D-lysine 6-well plate at a concentration of 5.0×10^4 per well and cultured for 24 hours. After 24 hours, the medium was removed and replaced with a low-serum medium. HAPLN1 siRNA and scrambled siRNA were added at a concentration of 25 pmol per well and incubated for 24 hours. After the siRNA and the medium were all removed, the medium was replaced with a serum-free medium having HAPLN1 (25 ng/mL) or HA (25 μg/mL) added thereto, and cultured for 1 hour. TGF-β2 (2 ng/mL) was treated and incubated for 23 hours. After collecting cells, a lysis buffer (25 mM Tris-HCl, 1 mM EDTA, 0.1% Triton-X100, phosphatase inhibitor, and protease inhibitor) was added, and all the cells were broken through sonication. TβRII in the sample was measured using Western blotting. The optical density of TβRII was compared to that of GAPDH using a densitometer.

[3] = test system: TβRII; assay: TβRII protein after HAPLN1 and/or HA in CD44-deficient human hair germinal matrix cells; type: cell-based; conditions: after CD44 siRNA; HAPLN1 25 ng/mL and/or HA 25 μg/mL; TGF-β2 2 ng/mL, 23 hours
Procedure: as §1, with “matrix cells, which were made to be deficient in CD44 by using CD44 siRNA,” for “matrix cells”, “medium. CD44” for “medium. HAPLN1”

[4] = test system: cell membrane TβRII; assay: Cell membrane TβRII protein (biotin labelling, immunoprecipitation, Western blotting); type: cell-based, human; conditions: HAPLN1 25 ng/mL and/or HA 25 μg/mL; TGF-β2 2 ng/mL
Procedure: All proteins present in the cell membrane were labeled with biotin, and immunoprecipitation was performed with a biotin antibody to isolate only the cell membrane protein. In order to confirm changes in the ratio of TβRII among cell membrane proteins, Western blotting was performed. The specific experimental method will now be described.
Human hair germinal matrix cells were dispensed into a poly-D-lysine 100 mm dish at a concentration of 2.7×10^6 and cultured for 24 hours. After 24 hours, the medium was removed and replaced with a new serum-free medium. HAPLN1 was treated with 25 ng/mL and HA with 25 μg/mL, and after 1 hour, TGF-β2 (2 ng/mL) was treated. To label biotin after 23 hours, EZ-Link™ Sulfo-NHS-LC-Biotin (Thermo Fisher Scientific, MA, USA) was treated at a concentration of 250 μg/mL and incubated at 4° C. for 1 hour. The biotin labeling reaction was terminated by treatment with 50 mM Tris-HCl. After collecting cells, a lysis buffer (50 mM Tris-HCl, 150 mM NaCl, 1% NP-40, phosphatase inhibitor, and protease inhibitor) was added, and all the cells were broken through sonication. Cell membrane proteins were isolated by performing immunoprecipitation experiments using anti-biotin antibodies. TβRII in the isolated membrane protein sample was measured using Western blotting. The optical density of TβRII was compared to that of GAPDH using a densitometer.

[5] = test system: p-ERK1/2; assay: p-ERK1/2 in human hair germinal matrix cells stimulated with TGF-β2 (Western blotting); type: cell-based; conditions: HAPLN1 25 ng/mL and/or HA 25 μg/mL, 23 hours; TGF-β2 2 ng/mL, 1 hour
Procedure: (§2) Human hair germinal matrix cells were dispensed into a poly-D-lysine 6-well plate at a concentration of 5.0×10^4 per well and cultured for 24 hours. After 24 hours, the medium was removed and replaced with a new serum-free medium. HAPLN1 was treated with 25 ng/mL and HA with 25 μg/mL, incubated for 23 hours, and then stimulated with TGF-β2 (2 ng/mL) for 1 hour. After collecting cells, a lysis buffer (25 mM Tris-HCl, 1 mM EDTA, 0.1% Triton-X100, phosphatase inhibitor, and protease inhibitor) was added, and all the cells were broken through sonication. p-ERK1/2, p-Smad2, p-MEK1/2, and p-c-Raf in the sample were measured using Western blotting. Optical densities of p-ERK1/2, p-Smad2, p-MEK1/2, and p-c-Raf were compared to those of ERK1/2, Smad2/3, MEK1, and c-Raf using a densitometer. Here, ERK1/2, Smad2/3, MEK1, and c-Raf were used as loading controls.

[6] = test system: p-Smad2; assay: p-Smad2 in human hair germinal matrix cells stimulated with TGF-β2 (Western blotting); type: cell-based; conditions: HAPLN1 25 ng/mL and/or HA 25 μg/mL; TGF-β2 2 ng/mL, 1 hour
Procedure: as §2

[7] = test system: p-MEK1/2; assay: p-MEK1/2 in human hair germinal matrix cells stimulated with TGF-β2 (Western blotting); type: cell-based; conditions: HAPLN1 25 ng/mL and/or HA 25 μg/mL; TGF-β2 2 ng/mL, 1 hour
Procedure: as §2

[8] = test system: p-c-Raf; assay: p-c-Raf in human hair germinal matrix cells stimulated with TGF-β2 (Western blotting); type: cell-based; conditions: HAPLN1 25 ng/mL and/or HA 25 μg/mL; TGF-β2 2 ng/mL, 1 hour
Procedure: as §2

[9] = test system: human hair germinal matrix cells; assay: Cell proliferation of human hair germinal matrix cells, CCK-8 (Example 10); type: cell-based; conditions: HAPLN1 25 ng/mL and/or HA 25 μg/mL; TGF-β2 2 ng/mL, 23 hours
Procedure: Human hair germinal matrix cells were dispensed into a poly-D-lysine 96-well plate at a concentration of 2.0×10^4 per well and cultured for 24 hours. After 24 hours, the medium was removed and replaced with a new serum-free medium. HAPLN1 was treated with 25 ng/mL and HA with 25 μg/mL, incubated for 1 hour, and then stimulated with TGF-β2 (2 ng/mL) for 23 hours. CCK-8 (Enzo Biochem, NY, USA) was treated and incubated at 37° C. for 1 hour.

[10] = test system: human dermal papilla cells; assay: Dermal papilla cell proliferating effect, CCK-8 (Example 13); type: cell-based; conditions: proteins 25 ng/ml, minoxidil 10 μM; TGF-β2 (2 ng/ml) present or absent
Procedure: Human dermal papilla cells were cultured in a 37° C., 5% CO2 incubator using a dermal papilla cell proliferation medium (Promocell). When the cells were about 90% full, the cells were detached with a 0.05% Trypsin/EDTA solution and then centrifuged at 1000 rpm for 3 minutes to recover only the cells. The cells were dispensed into a 96-well plate at 2.0×10^3 per well, cultured for 24 hours, and HAPLN1, CX3CL1 and CDON were diluted to have a final concentration of 25 ng/ml in serum-free medium. After removing the existing culture medium, 200 μl of diluted HAPLN1, CX3CL1, and CDON were dispensed into each well and cultured for 1 hour. To reduce an experimental variation, 3 wells per group were treated (triplication). In addition, minoxidil, which is known to proliferate dermal papilla cells, was treated with 10 μM and set as a positive control.
(§3) In the same manner as described above, HAPLN1 (25 ng/ml), CX3CL1 (25 ng/ml), CDON (25 ng/ml) or minoxidil (10 μM), and human recombinant TGF-β2 were diluted to a final concentration of 2 ng/ml, and the medium of the group containing TGF-β2 was replaced by 200 μl. To reduce an experimental variation, 3 wells per group were treated (triplication).
(§4) After incubation for 23 hours, the plate was removed from the incubator, and 20 μl of CCK-8 (WST-8) solution was added to the plate containing the medium and the reagent per 200 μl of the medium for the reaction to be carried out at 37° C. for 1 hour.

[11] = test system: human hair germinal matrix cells; assay: Hair germinal matrix cell proliferating effect, CCK-8 (Example 13); type: cell-based; conditions: 25 ng/ml; TGF-β2 condition not given
Procedure: as §3, §4
Human hair germinal matrix cells were released in a poly-D-lysine-coated flask using a mesenchymal stem cell medium (MSCM), and cultured in a 5% CO2 incubator at 37° C. When the cells were about 90% full, the cells were detached with a 0.05% Trypsin/EDTA solution, and then only the cells were recovered by centrifugation at 1000 rpm for 3 minutes. The recovered cells were dispensed into 96-well poly-D-lysine coated plates (BD bioscience) at 2.0×10^3 per well and cultured for 24 hours, and the final concentrations of HAPLN1, CX3CL1 and CDON were diluted to 25 ng/ml in a serum-free medium. The subsequent process was performed in the same manner as the experiment for the dermal papilla cells to measure the absorbance, and the results are shown in FIG. 22.

## Hyaluronic acid [HA, reference compound]
[1]
  TβRII protein (optical density compared to GAPDH): increased
[2]
  TβRII protein in endogenous HAPLN1-deficient cells: recovered
[3]
  TβRII protein in CD44-deficient cells: not confirmed that TβRII was recovered
[4]
  cell membrane TβRII protein concentration: increased
[5]
  ERK1/2 signaling (p-ERK1/2 compared to ERK1/2): activated
[6]
  phosphorylation of Smad2: no change
[7]
  MEK1/2 activity (p-MEK1/2 compared to MEK1): increased activities
[8]
  c-Raf activity (p-c-Raf compared to c-Raf): increased activities
[9]
  cell proliferation (absorbance at 450 nm) compared to the control group: promoted

B1: CX3CL1: protein expressed by a cell adhesion gene present in dermal papilla cells (protein, UniProt P78423 25-397, looked up)
Fractalkine: QHHGVTKCNITCSKMTSKIPVALLIHYQQNQASCGKRAIILETRQHRLFCADPKEQWVKDAMQHLDRQAAALTRNGGTFEKQIGEVKPRTTPAAGGMDESVVLEPEATGESSSLEPTPSSQEAQRALGTSPELPTGVTGSSGTRLPPTPKAQDGGPVGTELFRVPPVSTAATWQSSAPHQPGPSLWAEAKTSEAPSTQDPSTQASTASSPAPEENAPSEGQRVWGQGQSPRPENSLEREEMGPVPAHTDAFQDWGPGSMAHVSVVPVSSEGTPSREPVASGSWTPKAEEPIHATMDPQRLGVLITPVPDAQAATRRQAVGLLAFLGLLFCLGVAMFTYQSLQGCPRKMAGEMAEGLRYIPRSCGSNSYVLVPV
[10]
  dermal papilla cell proliferation (absorbance at 450 nm): did not proliferate dermal papilla cells or rather inhibited proliferation thereof
[11]
  hair germinal matrix cell proliferation (absorbance at 450 nm): inhibiting cell proliferation

B2: CDON: protein expressed by a cell adhesion gene present in dermal papilla cells (protein, UniProt Q4KMG0 26-1287, looked up)
Cell adhesion …: DLAPYFTSEPLSAVQKLGGPVVLHCSAQPVTTRISWLHNGKTLDGNLEHVKIHQGTLTILSLNSSLLGYYQCLANNSIGAIVSGPATVSVAVLGDFGSSTKHVITAEEKSAGFIGCRVPESNPKAEVRYKIRGKWLEHSTENYLILPSGNLQILNVSLEDKGSYKCAAYNPVTHQLKVEPIGRKLLVSRPSSDDVHILHPTHSQALAVLSRSPVTLECVVSGVPAPQVYWLKDGQDIAPGSNWRRLYSHLATDSVDPADSGNYSCMAGNKSGDVKYVTYMVNVLEHASISKGLQDQIVSLGATVHFTCDVHGNPAPNCTWFHNAQPIHPSARHLTAGNGLKISGVTVEDVGMYQCVADNGIGFMHSTGRLEIENDGGFKPVIITAPVSAKVADGDFVTLSCNASGLPVPVIRWYDSHGLITSHPSQVLRSKSRKSQLSRPEGLNLEPVYFVLSQAGASSLHIQAVTQEHAGKYICEAANEHGTTQAEASLMVVPFETNTKAETVTLPDAAQNDDRSKRDGSETGLLSSFPVKVHPSAVESAPEKNASGISVPDAPIILSPPQTHTPDTYNLVWRAGKDGGLPINAYFVKYRKLDDGVGMLGSWHTVRVPGSENELHLAELEPSSLYEVLMVARSAAGEGQPAMLTFRTSKEKTASSKNTQASSPPVGIPKYPVVSEAANNNFGVVLTDSSRHSGVPEAPDRPTISTASETSVYVTWIPRANGGSPITAFKVEYKRMRTSNWLVAAEDIPPSKLSVEVRSLEPGSTYKFRVIAINHYGESFRSSASRPYQVVGFPNRFSSRPITGPHIAYTEAVSDTQIMLKWTYIPSSNNNTPIQGFYIYYRPTDSDNDSDYKRDVVEGSKQWHMIGHLQPETSYDIKMQCFNEGGESEFSNVMICETKVKRVPGASEYPVKDLSTPPNSLGSGGNVGPATSPARSSDMLYLIVGCVLGVMVLILMVFIAMCLWKNRQQNTIQKYDPPGYLYQGSDMNGQMVDYTTLSGASQINGNVHGGFLTNGGLSSGYSHLHHKVPNAVNGIVNGSLNGGLYSGHSNSLTRTHVDFEHPHHLVNGGGMYTAVPQIDPLECVNCRNCRNNNRCFTKTNSTFSSSPPPVVPVVAPYPQDGLEMKPLSHVKVPVCLTSAVPDCGQLPEESVKDNVEPVPTQRTCCQDIVNDVSSDGSEDPAEFSRGQEGMINLRIPDHLQLAKSCVWEGDSCAHSETEINIVSWNALILPPVPEGCAEKTMWSPPGIPLDSPTEVLQQPRET
[10]
  dermal papilla cell proliferation (absorbance at 450 nm): did not proliferate dermal papilla cells or rather inhibited proliferation thereof
[11]
  hair germinal matrix cell proliferation (absorbance at 450 nm): inhibiting cell proliferation
